Results on 8 compounds are retold here after PubChem BioAssay (NCI).

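Where inhibition never reached the appropriate level, the endpoint shown equals the highest concentration tested. Otherwise, values were interpolated linearly from a five-concentration, 48-hour dose response in 96-well plates. The concentration for full growth arrest is given as TGI.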 Some results are limits rather than exact numbers.

Test systems include ACHN renal; CCRF-CEM leukemia; HCT-116 colon; HCT-15 colon; HOP-62 NSCLC; HOP-92 NSCLC; HT29 colon; NCI-H226 lung; OVCAR-5 ovarian; RPMI-8226 leukemia; SF-295 CNS; SK-MEL-2 melanoma; SK-OV-3 ovarian; SNB-19 CNS; SNB-75 CNS; TK-10 renal; UACC-257 melanoma.
Test in all cases: NCI anticancer screen, dose series, 48 h

With `CN(C)CCCc1cccnc1`, the TGI with ACHN renal, in the test on CCRF-CEM leukemia, in the test with HCT-116 colon, in the test on HCT-15 colon, with HOP-62 NSCLC and with HOP-92 NSCLC was greater than 100 µM each time. For the same compound, the TGI with HT29 colon, in the test on NCI-H226 lung, in the test with OVCAR-5 ovarian, in the test with RPMI-8226 leukemia, with SF-295 CNS and with SK-MEL-2 melanoma was greater than 100 µM each time. The TGI in the test with SK-OV-3 ovarian, with SNB-19 CNS, with SNB-75 CNS, in the test with TK-10 renal and in the test with UACC-257 melanoma was greater than 100 µM in each case.

Turning to `O/N=C(\C=N\O)c1ccc2c(c1)Sc1ccccc1O2`, the TGI with ACHN renal stood at 42.8 µM; in the test on CCRF-CEM leukemia, 7.43 µM; in the test with HCT-116 colon, 45.7 µM; in the test on HCT-15 colon it was 75.2 µM; in the test with HOP-62 NSCLC it was 36.8 µM; with HOP-92 NSCLC it was 36.8 µM. Moreover, the TGI was determined as 49.7 µM in the test on HT29 colon; 69.6 µM in the test with NCI-H226 lung; 87.5 µM in the test on OVCAR-5 ovarian; 38.9 µM with RPMI-8226 leukemia; 46.3 µM in the test with SF-295 CNS; 40.2 µM in the test on SK-OV-3 ovarian. Besides, the TGI in the test on SNB-19 CNS is 67.8 µM; in the test with SNB-75 CNS it was 50.3 µM; in the test with TK-10 renal, 84.1 µM; in the test on UACC-257 melanoma it was 42 µM.

Turning to `CC(C)=CCC[C@](C)(O)[C@H]1CC[C@]2(C)[C@@H]1[C@H](O)C[C@@H]1[C@@]3(C)CC[C@H](O[C@@H]4O[C@H](CO)[C@@H](O)[C@H](O)[C@H]4O)C(C)(C)[C@@H]3CC[C@]12C`, the TGI in the test on ACHN renal was found to be 32.9 µM; in the test on CCRF-CEM leukemia, 43.8 µM; with HCT-116 colon it was 41.2 µM; in the test on HCT-15 colon, 32.8 µM; with HOP-62 NSCLC, 47.8 µM; with HOP-92 NSCLC, 33.7 µM. The TGI in the test on HT29 colon is 32.5 µM; with NCI-H226 lung, 34.6 µM; in the test on OVCAR-5 ovarian, 49.3 µM; in the test on RPMI-8226 leukemia it was 38.8 µM; in the test with SF-295 CNS, 39.6 µM; in the test on SK-MEL-2 melanoma, 29.7 µM. Further, the TGI amounted to 33 µM in the test on SK-OV-3 ovarian; 35.4 µM in the test on SNB-19 CNS; 33.5 µM with SNB-75 CNS; 39.6 µM in the test with TK-10 renal; 41.1 µM in the test with UACC-257 melanoma.

For the compound `CC(N)C(=O)c1ccc(O)cc1` (configuration not stated), the TGI with ACHN renal, in the test on CCRF-CEM leukemia, in the test with HCT-116 colon, in the test with HCT-15 colon, with HOP-62 NSCLC and in the test with HOP-92 NSCLC was greater than 100 µM each time. For the same compound, the TGI in the test with HT29 colon, with NCI-H226 lung, in the test with OVCAR-5 ovarian, in the test with RPMI-8226 leukemia, in the test with SF-295 CNS and in the test with SK-MEL-2 melanoma was greater than 100 µM throughout. The TGI in the test on SK-OV-3 ovarian, in the test on SNB-19 CNS, in the test with SNB-75 CNS, with TK-10 renal and in the test with UACC-257 melanoma was greater than 100 µM in each case.

`COc1cc(C2c3cc4c(cc3OC3(O)COC(=O)C23)OCO4)cc(OC)c1OC` (configuration not stated): the TGI in the test with ACHN renal, in the test with CCRF-CEM leukemia, in the test with HCT-116 colon, in the test with HCT-15 colon, in the test on HOP-62 NSCLC and in the test with HT29 colon was greater than 100 µM in each case. Also, the TGI is greater than 100 µM in the test on NCI-H226 lung; greater than 100 µM in the test with OVCAR-5 ovarian; greater than 100 µM in the test on RPMI-8226 leukemia; 74.5 µM in the test on SF-295 CNS; greater than 100 µM in the test with SK-MEL-2 melanoma; 79 µM in the test with SK-OV-3 ovarian. Further, the TGI in the test on SNB-19 CNS is greater than 100 µM; in the test with SNB-75 CNS it was 54.5 µM; in the test with TK-10 renal it was greater than 100 µM; in the test on UACC-257 melanoma, greater than 100 µM.

In the case of `Nc1ccc2cc(S(=O)(=O)O)cc(O)c2c1N=Nc1ccc(NC(=O)Nc2ccc(N=Nc3c(N)ccc4cc(S(=O)(=O)O)cc(O)c34)c(S(=O)(=O)O)c2)cc1S(=O)(=O)O`, the TGI in the test on CCRF-CEM leukemia, in the test on HCT-116 colon, in the test on HCT-15 colon, in the test on HOP-62 NSCLC, with HOP-92 NSCLC and with HT29 colon was greater than 100 µM in each case. The TGI in the test on NCI-H226 lung, in the test with OVCAR-5 ovarian, in the test on SF-295 CNS, in the test with SK-MEL-2 melanoma, in the test on SK-OV-3 ovarian and in the test with SNB-75 CNS was greater than 100 µM throughout. This compound gave a TGI with UACC-257 melanoma greater than 100 µM.

As to `COc1nc(/C=N/NC(N)=S)nc(OC)n1`, the TGI in the test on ACHN renal, in the test with HCT-116 colon, in the test on HOP-92 NSCLC, with HT29 colon, in the test on NCI-H226 lung and in the test on OVCAR-5 ovarian was greater than 100 µM in each case. Besides, the TGI with RPMI-8226 leukemia, with SF-295 CNS, in the test with SK-MEL-2 melanoma, with SK-OV-3 ovarian, in the test on SNB-19 CNS and with SNB-75 CNS was greater than 100 µM throughout. The TGI in the test on TK-10 renal and in the test with UACC-257 melanoma was greater than 100 µM in each case.

As for `CCc1ccc(CCC(=O)O)nc1`, the TGI in the test with ACHN renal, with CCRF-CEM leukemia, in the test with HCT-116 colon, in the test on HCT-15 colon, in the test on HOP-62 NSCLC and in the test on HOP-92 NSCLC was greater than 100 µM throughout. The TGI in the test with HT29 colon, with NCI-H226 lung, with OVCAR-5 ovarian, with RPMI-8226 leukemia, with SF-295 CNS and with SK-MEL-2 melanoma was greater than 100 µM in each case. Besides, the TGI with SK-OV-3 ovarian, with SNB-19 CNS, with SNB-75 CNS, in the test on TK-10 renal and in the test on UACC-257 melanoma was greater than 100 µM each time.
